Assay results from patent publication US20220016168A1, “METHODS OF USING CD27 ANTIBODIES AS CONDITIONING TREATMENT FOR ADOPTIVE CELL THERAPY” (Celldex Therapeutics, Inc., priority 2018, published 2022).

Key:
[1] = test system: CD8, CD4 T-cells and Treg (CD4+Foxp3+); test: T-cell depletion in spleen and pLNs of human CD27 transgenic mice (flow cytometry); assay type: in vivo
Source text: Spleens and pLNs were collected 7 days later and processed for flow cytometry analysis.
The same preparations of splenocytes and pLNs cells as in Example 1 were stained for CD8, CD4 and Foxp3.

[2] = test system: E.G7 cells; test: E.G7 tumor model with OT-I T-cell adoptive therapy; assay type: in vivo, mice
[3] = test system: CD8 T cells; test: Ki-67 proliferation of donor and recipient CD8 T cells after varlilumab; assay type: in vivo, mice; settings: spleen, varlilumab pretreatment
Source text: (§1) CD8 T cells on day 0. Spleens and pLNs were collected on day 14 and processed for flow cytometry analysis. […] CD8, CD4 and Treg cell counts per μl blood were depicted in FIG. 11C (n=6 mice per group).
Percentage of ki-67^+ in gated donor origin or recipient origin CD8 T cells in the spleen of the same mice as in FIGS. 11A and 11B were depicted in FIG. 12A. Percentages of Ki-67^+ cells in gated CD8 T cells in the spleen and pLNs of the same mice as in FIG. 11C were depicted in FIG. 12B.

[4] = test system: donor origin CD8 T-cells; test: In vivo expansion of adoptively transferred donor T-cells in pretreated recipient mice; settings: for donor CD8 T-cell expansion: 14 days post transfusion
[5] = test system: WBC subpopulations; test: Total and differential WBC counts and Treg recovery after conditioning treatment; assay type: in vivo, mice
[6] = biological target: T1, human CD70-Fc binding to CD27 on CD4+CD25+ Treg cells (Homo sapiens, UniProt P26842); test: hCD70-Fc staining on hCD27+/+mCD27-/- splenocytes preincubated with Ab (ligand blocking); settings: 10 μg Ab 30 minutes on ice, vs hIgG1 isotype control
T1 construct: from tissue; host or cells: splenocytes from hCD27+/+ mCD27-/- transgenic mice
T1 sequence (P26842 20-260): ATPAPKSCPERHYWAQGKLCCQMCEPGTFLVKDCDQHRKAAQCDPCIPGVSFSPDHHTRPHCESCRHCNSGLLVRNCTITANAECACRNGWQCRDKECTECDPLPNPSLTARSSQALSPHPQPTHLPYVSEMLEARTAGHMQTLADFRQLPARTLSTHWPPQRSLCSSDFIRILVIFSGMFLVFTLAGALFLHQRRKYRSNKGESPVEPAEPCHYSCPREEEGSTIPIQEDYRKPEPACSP
Protocol: Splenocytes from hCD27^+/+mCD27^−/− mice were incubated with 10 μg Ab as indicated for 30 minutes on ice and then stained with a fluorescently labeled human CD70-Fc fusion protein (0.5 μg) and Abs for cell surface markers. Shown is a histogram of hCD70-Fc staining on gated CD4^+CD25^+ Treg cells.

[7] = test system: recipient CD3 T-cells; test: Recipient T-cell depletion after CD27 Ab pretreatment (flow cytometry); assay type: in vivo, mice; settings: for recipient CD3 T-cell counts on day 0: compared to isotype control
Protocol: Spleens and pLNs were collected from one set of mice on day 0 without cell transfusion and from another set of mice 14 days post intravenous (i.v.) transfusion with 2×10^6 CFSE-labeled w.t. CD8 T-cells for the assessment of recipient cell depletion (FIG. 4A) and donor cell expansion (FIG. 4B). Percentages of recipient CD3 T-cells (CD45.1^+CD45.2^−CD3^+) and donor origin CD8 T-cells (CD45.1^−CD45.2^+CD3^+CD8^+) out of total live cells in spleens and pLNs were determined by flow cytometry and the absolute numbers of donor origin cells were calculated based on total cell counts of spleens and pLNs.
These mice were bled and then transfused with 2×10^6 CD8 T-cells on day 0. Shown are the percentages of donor origin cells out of total live cells in the spleen and pLNs after 14 days of in vivo expansion (FIG. 10A) and the percentages of CD3 T cells in recipients' blood on day 0 before transfusion (FIG. 10B). Data are from one representative experiment of two performed, n=5 mice per group, *p<0.05, **p<0.01, ***p<0.001 indicating statistical significance compared to isotype control or between groups as specified by the horizontal line.
as §1

[8] = biological target: T2, w.t. CD27 extracellular domain fragment (Homo sapiens, UniProt P26842); test: ELISA binding to w.t. CD27 fragment; settings: serially diluted supernatants
T2 construct: made in house; culture supernatant used
T2 sequence (P26842 21-130): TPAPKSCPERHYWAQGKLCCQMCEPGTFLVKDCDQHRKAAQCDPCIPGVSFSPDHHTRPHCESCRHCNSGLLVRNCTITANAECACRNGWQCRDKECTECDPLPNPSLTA
Source text: CD27 extracellular domain spanning amino acid residue 1-110 w.t. sequence and R87A mutation sequence according to Kabat numbering were cloned into an expression vector fused with a human kappa chain in the N-terminus and a flag-tag in the C-terminus. The CD27 fragments were expressed by transient transfection and quantified by an ELISA measuring concentration of human kappa chain in the culture supernatant.

With “varlilumab: fully human monoclonal IgG1 antibody binding CD27; heavy/light chains SEQ ID NO: 68 and 69” the “percentage and absolute numbers of Treg in peripheral lymph organs” value ([1]; 0.2 mg i.p., 7 days, spleen and pLNs, vs isotype control) was “reduced”, the “total T-cells (CD8 and CD4), percentage out of total live cells and absolute numbers” value ([1]; 0.2 mg i.p., spleens and pLNs 7 days later, hCD27+/-mCD27wt mice, vs isotype control) was “reduced” and the “pattern of T-cell deletion among T-cell subsets” value ([1]; Examples 1 and 2 together) was “preferentially on Treg and secondarily on CD4-Th, while the least reduction is on CD8 T-cells”. The “conditioning effect of one delayed dose alone” value ([2]; 300 μg day 14 only, OT-I day 16, survival) was “no conditioning effect by itself”, the “antitumor efficacy of varlilumab pretreatment followed by OT-I T-cell transfer” value ([2]; 300 μg day -2 and 5, OT-I day 7, tumor growth and survival) was “stronger antitumor efficacy than varlilumab alone” and the “antitumor efficacy of OT-I T-cells compared to hIgG1 isotype control” value ([2]; delayed therapy: 300 μg day 6 and 14, OT-I day 16) was “enhances antitumor efficacy of OT-I T-cells”. The “OT-I T-cells antitumor activity compared to hIgG1 control” value ([2]; varlilumab 300 μg day 7 and 14, or Cy 1 mg and Flu 0.1 mg day 13 and 14, OT-I day 16) was “facilitates OT-I T-cells antitumor activity”, the “effect of one delayed dose combined with Cy and Flu on OT-I T-cells antitumor activity” value ([2]; varlilumab 300 μg day 14 plus Cy 1 mg and Flu 0.1 mg day 13 and 14, survival) was “synergizes” and the “CD8 T-cell proliferation (Ki-67+) donor origin vs recipient origin cells” value ([3]; hCD27+/+mCD27-/- mice) was “significantly higher in donor origin cells”. The “CD8 T-cell proliferation (Ki-67+) donor origin vs recipient origin cells” value ([3]; hCD27+/+mCD27wt mice) was “no difference”, the “percentage of donor-origin CD8 T-cells out of total live cells, time course” value ([4]; 200 μg day -7 and -2, spleens and pLNs day 7, 14 and 21, vs hIgG1) was “long-lasting accumulation of donor-origin CD8 T-cells” and the “transferred cell expansion in recipients lacking CD27 signaling” value ([4]; 200 μg days -7 and -2, hCD27+/+mCD27-/- recipients, day 14) was “remarkable transferred cell expansion”. The “expansion of transfused CD8 T-cells compared to 2C2 or varlimut” value ([4]; 300 μg days -14 and -2, hCD27+/+mCD27-/- mice, 14 days) was “greater expansion of transfused CD8 T-cells”, the “donor CD8 T-cell expansion” value ([4]; 300 μg i.p. on day -2 only) was “minimal expansion” and the “donor CD8 T-cell expansion” value ([4]; 300 μg i.p. on day -14 and -2, hCD27+/+mCD27-/- mice) was “greatest expansion”. The “donor CD8 T-cell expansion” value ([4]; 300 μg i.p. on day -14 only) was “median level of expansion”, the “donor cell expansion (donor origin CD8 T-cells in blood, spleen and pLNs)” value ([4]; Example 14 regimens, day 14, Cy and Flu vs control mice, varlilumab vs Cy and Flu) was “further increased” and the “CFSE dilution in donor-origin CD8 T-cells” value ([4]; pretreatment day -14 and -2, vs hIgG1) was “enhanced proliferation”. The “percentage of Treg cells out of total live cells in blood, spleen and pLNs on day 14” value ([5]; 14 days post cell transfer) was “remains low”, the “total and differential counts of WBC per μl blood on day of adoptive transfer (day 0)” value ([5]; varlilumab 300 μg day -14 and -2, Cy 1 mg and Flu 0.1 mg day -4, -3, -2, hCD27+/+mCD27-/- mice) was “only depletes T-cells with the most reduction in Treg population and does not attack myeloid cells, B-cells and NK cells” and the “hCD70-Fc staining on gated CD4+CD25+ Treg cells (ligand blocking)” value [6] was “no hCD70 binding detected”. The “T cell reduction in the two strains of recipients (CD8, CD4 and Treg counts per μl blood)” value ([7]; 300 μg day 0, blood 14 days later, hCD27+/+mCD27-/- vs hCD27+/+mCD27wt) was “same extent of T cell reduction”, the “recipient CD3 T-cell counts on day 0” value ([7]; 1 dose on day -14) was “reduced to the same extent” and the “recipient CD3 T-cell counts on day 0” value ([7]; 2 doses on day -14 and -2) was “reduced to the same extent”. The “recipient CD3 T-cell counts on day 0” value ([7]; Ab on day -2 only) was “no significant reduction”, the “recipient CD3 T-cell counts by day 14 compared to day 0” value ([7]; Ab on day -14 only) was “remained the same” and the “recipient CD3 T-cell counts by day 14 compared to day 0” value ([7]; varlilumab on day -2 only) was “further decreased”. The “recipient CD3 T-cell counts by day 14 compared to day 0” value ([7]; varlilumab on day -14 and -2) was “further decreased” and the “binding to w.t. CD27 fragment (OD450)” value [8] was “recognizes w.t. CD27”.
